Assays:
[1] = system: patients qualified under the DSM-5 definition of autism; test: Example 4: adverse events and clinical observation; type: in vivo, human
Experimental: α-methyl-DL tyrosine (AMPT) was administered to 3 patients. This group of patients was qualified under the DSM-5 definition of autism and treated.

[2] = Study HT 02-121: L1-79 plasma concentrations (pharmacokinetics); type: in vivo; conditions: male, human, open-label 200 mg TID, read-out: plasma concentration at 1-hour post-dose on Day 1
Experimental: The first five patients in each cohort were assigned to receive active medication in an open-label fashion. The patients were treated identically to the randomized patients with the following exceptions: (1) blood samples were drawn at baseline and 1 hour after dosing, and at Week 1, 2, 3 and 4 treatment visits 1 hour after dosing to determine the PK of L1-79, (2) EKGs were assessed at baseline and within 3-days prior to the Week 1, 2, 3 and 4 treatment visits as well as the 1-week and 4-week post-dosing follow-up visits, (3) vital signs, physical exams, and ASD assessments were performed at 1-week postdosing visit, (4) blood and urine samples were drawn at baseline and at Week 1, 2, 3 and 4 treatment visits 1 hour after dosing as well as the 1-week and 4-week post-dosing follow-up visits for safety analyses.
Pharmacokinetics were assessed in the open-label 100 mg and 200 mg TID patients. On Day 1, L-79 concentrations were assessed one-hour post dose. Subsequently, a random L1-79 plasma concentration was assessed at Week 1, Week 2, Week 3 and Week 4.

[3] = system: male patients diagnosed with autism; test: Study HT 02-121: Repetitive Behavior Scale-Revised (RBS-R); type: in vivo, human; conditions: for RBS-R Compulsive Behavior Mean Change from Baseline / RBS-R Compulsive Behavior Treatment effect versus placebo / RBS-R Compulsive Behavior change, median / RBS-R Restricted Behavior Mean Change from Baseline / RBS-R Restricted Behavior Treatment effect versus placebo / RBS-R Restricted Behavior change, median / RBS-R Ritualistic Behavior Mean Change from Baseline / RBS-R Ritualistic Behavior Treatment effect versus placebo / RBS-R Ritualistic Behavior change, median / RBS-R Sameness Behavior Mean Change from Baseline / RBS-R Sameness Behavior Treatment effect versus placebo / RBS-R Sameness Behavior change, median / RBS-R Self Injurious Behavior Mean Change from Baseline / RBS-R Self Injurious Behavior Treatment effect versus placebo / RBS-R Self Injurious Behavior change, median / RBS-R Stereotypic Behavior Mean Change from Baseline / RBS-R Stereotypic Behavior Treatment effect versus placebo / RBS-R Stereotypic Behavior change, median / RBS-R Total Score Mean Change from Baseline / RBS-R Total Score Treatment effect versus placebo / RBS-R Total Score change, median: Week 4/LOCF
Experimental: This clinical study was a randomized double-blind, placebo-controlled two-cohort, 4-week dose-escalation study that incorporated two open-label treatment groups to assess the safety and efficacy of L1-79 100 mg and 200 mg TID in male patients between the ages of […] years of age diagnosed with autism. The first cohort of 20 patients was comprised of three groups of patients: The first group of five patients received open-label L1-79 100 mg TID and underwent PK and EKG assessments. The remaining two groups in this cohort consisted of 15 patients randomized on a 2:1 basis to receive L1-79 100 mg TID or placebo. The PK and safety data from the open-label L1-79 100 mg TID group was submitted to FDA for review and acceptance before the second cohort was enrolled. The second cohort was procedurally identical to the first. The second cohort of 20 patients was comprised of the same three groups of patients but a dose of 200 mg TID was used instead of 100 mg TID. The key inclusion criteria were as follows: (1) males between 13 and 21 years of age, (2) DSM-5 compliant diagnosis of autism spectrum disorder, confirmed by the Autistic Diagnosis Interview Review (ADIR), and by an ADOS-2 score consistent with a diagnosis of autism, (3) must have been stable on no more than one concomitant medication and no planned changes in psychosocial interventions during the study.
The primary efficacy endpoint was the determination of the clinical improvement by the investigator as documented by the Clinical Global Impression (CGI) rating scales. Additional efficacy endpoints included: (1) changes from baseline in the Socialization and Communication Domains of the Vineland Adaptive Behavior Scales, Second Edition (VABS II) parent/caregiver rating form, (2) changes from baseline in the ADOS-2 Total Score and subscores, (3) changes in the Social Responsiveness Scale, Second Edition (SRS-2) Total Score and subscales, (4) changes in the ABC-C domains, (5) changes in the Repetitive Behavior Scale-Revised (RBS-R) Total Score and subscales. Given the exploratory design of this study only descriptive statistics were planned.
In the preliminary study, all forms were completed at the study site in the presence of the investigator. In Cohort 1 of the present study, the VABS-II, SRS-2, ABC-C and RBS-R were filled out at home by the patient/patient's families prior to treatment visits and returned at treatment visits in order to expedite the execution of the study. […]

concentration at 1 h [2]: 23 to 1680 ng/mL
SMILES: CC(N)(Cc1ccc(O)cc1)C(=O)O (racemic) [L1-79, α-methyl-DL-tyrosine]
adverse events reported ([1]; Example 4 patients): mild tiredness on the first day of dosing in two patients
clinical improvements, onset and durability ([1]; Example 4 patients): begin quickly and are durable
Adverse Events ([1]; patient 01-001, 90 TID): None
Adverse Events ([1]; patient 01-002, 90 TID): None
Adverse Events ([1]; patient 01-003, 90 TID): None
RBS-R Compulsive Behavior Mean Change from Baseline ([3]; DB 100 mg TID): −1.2
RBS-R Compulsive Behavior Treatment effect versus placebo ([3]; DB 100 mg TID): 0.3
RBS-R Compulsive Behavior change, median ([3]; DB 100 mg TID): −2, 0, 1
RBS-R Restricted Behavior Mean Change from Baseline ([3]; DB 100 mg TID): 1.3
RBS-R Restricted Behavior Treatment effect versus placebo ([3]; DB 100 mg TID): 2.9
RBS-R Restricted Behavior change, median ([3]; DB 100 mg TID): 0, 1, 1
RBS-R Ritualistic Behavior Mean Change from Baseline ([3]; DB 100 mg TID): 0.1
RBS-R Ritualistic Behavior Treatment effect versus placebo ([3]; DB 100 mg TID): 3.8
RBS-R Ritualistic Behavior change, median ([3]; DB 100 mg TID): −1, 0, 2
RBS-R Sameness Behavior Mean Change from Baseline ([3]; DB 100 mg TID): −0.7
RBS-R Sameness Behavior Treatment effect versus placebo ([3]; DB 100 mg TID): 2.2
RBS-R Sameness Behavior change, median ([3]; DB 100 mg TID): −1, −1, 0
RBS-R Self Injurious Behavior Mean Change from Baseline ([3]; DB 100 mg TID): −2.2
RBS-R Self Injurious Behavior Treatment effect versus placebo ([3]; DB 100 mg TID): −0.1
RBS-R Self Injurious Behavior change, median ([3]; DB 100 mg TID): −2, 0, 0
RBS-R Stereotypic Behavior Mean Change from Baseline ([3]; DB 100 mg TID): −0.6
RBS-R Stereotypic Behavior Treatment effect versus placebo ([3]; DB 100 mg TID): −0.1
RBS-R Stereotypic Behavior change, median ([3]; DB 100 mg TID): 0, 0, 0
RBS-R Total Score Mean Change from Baseline ([3]; DB 100 mg TID): −3.2
RBS-R Total Score Treatment effect versus placebo ([3]; DB 100 mg TID): 7.8
RBS-R Total Score change, median ([3]; DB 100 mg TID): −6, −4, −1
RBS-R Compulsive Behavior Mean Change from Baseline ([3]; DB 200 mg TID): −2.7
RBS-R Compulsive Behavior Treatment effect versus placebo ([3]; DB 200 mg TID): −1.2
RBS-R Compulsive Behavior change, median ([3]; DB 200 mg TID): −3, 0, 0
RBS-R Restricted Behavior Mean Change from Baseline ([3]; DB 200 mg TID): −2.5
RBS-R Restricted Behavior Treatment effect versus placebo ([3]; DB 200 mg TID): −1.0
RBS-R Restricted Behavior change, median ([3]; DB 200 mg TID): −5, −1, 0
RBS-R Ritualistic Behavior Mean Change from Baseline ([3]; DB 200 mg TID): −3.1
RBS-R Ritualistic Behavior Treatment effect versus placebo ([3]; DB 200 mg TID): 0.6
RBS-R Ritualistic Behavior change, median ([3]; DB 200 mg TID): −5, −1, 0
RBS-R Sameness Behavior Mean Change from Baseline ([3]; DB 200 mg TID): 4.2
RBS-R Sameness Behavior Treatment effect versus placebo ([3]; DB 200 mg TID): −1.3
RBS-R Sameness Behavior change, median ([3]; DB 200 mg TID): −9, 0, 0
RBS-R Self Injurious Behavior Mean Change from Baseline ([3]; DB 200 mg TID): −1.7
RBS-R Self Injurious Behavior Treatment effect versus placebo ([3]; DB 200 mg TID): 0.4
RBS-R Self Injurious Behavior change, median ([3]; DB 200 mg TID): −1, 0, 0
RBS-R Stereotypic Behavior Mean Change from Baseline ([3]; DB 200 mg TID): −1.8
RBS-R Stereotypic Behavior Treatment effect versus placebo ([3]; DB 200 mg TID): −1.4
RBS-R Stereotypic Behavior change, median ([3]; DB 200 mg TID): −5, 0, 0
RBS-R Total Score Mean Change from Baseline ([3]; DB 200 mg TID): −16.1
RBS-R Total Score Treatment effect versus placebo ([3]; DB 200 mg TID): −5.1
RBS-R Total Score change, median ([3]; DB 200 mg TID): −28, −2, 0
RBS-R Total Score compared to placebo ([3]; L1-79 200 mg): mean improvements
RBS-R Total Score responders (improvement or stabilization of symptoms) ([3]; L1-79 200 mg, placebo 78%): 91%
